The values below come from PMC12410758, “A novel sulfamoylphenyl-dihydro-thiadiazole derivative as a dual EGFR and carbonic anhydrase inhibitor for cancer therapy” (PLOS One, 2025).

Molecules are shown by their SMILES. Like-named read-outs stand apart in the source and are kept apart here.

Data set [1] can be described thus: MTT safety assay, non-cancerous Vero cells. Type of data set: cell-based. The settings on record: African green monkey, mean ± SEM of three independent experiments, read-out: In vitro Cytotoxicity IC50 (µM) Vero.
Experimental: The cell line (Vero) was obtained from ATCC via Holding company for biological products and vaccines
(VACSERA) , Cairo, Egypt.
The different cell line mentioned above were used to determine the inhibitory effects of compounds on c ell growth using the MTT assay. This colorimetric assay is based on the conversion of the yellow tetrazolium
bromide (MTT) to a purple formazan derivative by mitochondrial succinate dehydrogenase in viable cells.
Antibiotics added were 100
units/ml penicillin and 100µg/ml streptomycin at 37 C in a 5% Co2 incubator. The cellswere seedesin a 96-
well plate at a density of 1.0x10^4 cells/well.at 37 C for 48 h under 5% Co2. After incubation the cells were treated with different concentration of compounds and incubated for 24 h. After 24 h of drug treatment, 20 µl
of MTT solution at 5mg/ml was added and incubated for 4 h. Dimethyl sulfoxide(DMSO) in volume of 100µl
is added into each well to dissolve the purple formazan formed. The colorimetric assay is measured and
The relative cell viability in percentage
was calculated as (A570 of treated samples/A570 of untreated sample) X 100.
A further data set deals with MCF-7 cells. Kind of data set: MTT cytotoxicity, MCF-7. Particulars: for IC50: read-out: In vitro Cytotoxicity IC50 (µM) MCF-7, mean ± SEM of three independent experiments; for Average of Relative viability of cells (%) MCF-7: 24 h.
In data set [2] the test system is MDA-MB-231 cells. Kind of data set: MTT cytotoxicity, MDA-MB-231. The settings on record: for IC50: read-out: In vitro Cytotoxicity IC50 (µM) MDA-231, mean ± SEM of three independent experiments; for Average of Relative viability of cells (%) MDA-231: 24 h.
Experimental: (§1) The cell lines mentioned above were used to determine the inhibitory effects of compounds on cell growth
(§2) using the MTT assay. This colorimetric assay is based on the conversion of the yellow tetrazolium bromide (MTT) to a purple formazan derivative by mitochondrial succinate dehydrogenase in viable cells. Cell lines
(§3) Antibiotics added were 100 units/ml penicillin and 100µg/ml streptomycin at 37 C in a 5% Co2 incubator. The cell lines were seedesin a 96-well
(§4) plate at a density of 1.0x10^4 cells/well. at 37 C for 48 h under 5% Co2. After incubation the cells were treated
(§5) with different concentration of compounds and incubated for 24 h. After 24 h of drug treatment, 20 µl of MTT solution at 5mg/ml was added and incubated for 4 h. Dimethyl sulfoxide (DMSO) in volume of 100 µl is
(§6) added into each well to dissolve the purple formazan formed. The colorimetric assay is measured and recorded
(§7) The relative cell viability in percentage was
(§8) calculated as (A570 of treated samples/A570 of untreated sample) X 100.
For data set [3], the target named is T1, EGFR (Homo sapiens, UniProt P00533).
T1 construct: purchased BPS Bioscience, USA
T1 sequence (P00533 25-1210): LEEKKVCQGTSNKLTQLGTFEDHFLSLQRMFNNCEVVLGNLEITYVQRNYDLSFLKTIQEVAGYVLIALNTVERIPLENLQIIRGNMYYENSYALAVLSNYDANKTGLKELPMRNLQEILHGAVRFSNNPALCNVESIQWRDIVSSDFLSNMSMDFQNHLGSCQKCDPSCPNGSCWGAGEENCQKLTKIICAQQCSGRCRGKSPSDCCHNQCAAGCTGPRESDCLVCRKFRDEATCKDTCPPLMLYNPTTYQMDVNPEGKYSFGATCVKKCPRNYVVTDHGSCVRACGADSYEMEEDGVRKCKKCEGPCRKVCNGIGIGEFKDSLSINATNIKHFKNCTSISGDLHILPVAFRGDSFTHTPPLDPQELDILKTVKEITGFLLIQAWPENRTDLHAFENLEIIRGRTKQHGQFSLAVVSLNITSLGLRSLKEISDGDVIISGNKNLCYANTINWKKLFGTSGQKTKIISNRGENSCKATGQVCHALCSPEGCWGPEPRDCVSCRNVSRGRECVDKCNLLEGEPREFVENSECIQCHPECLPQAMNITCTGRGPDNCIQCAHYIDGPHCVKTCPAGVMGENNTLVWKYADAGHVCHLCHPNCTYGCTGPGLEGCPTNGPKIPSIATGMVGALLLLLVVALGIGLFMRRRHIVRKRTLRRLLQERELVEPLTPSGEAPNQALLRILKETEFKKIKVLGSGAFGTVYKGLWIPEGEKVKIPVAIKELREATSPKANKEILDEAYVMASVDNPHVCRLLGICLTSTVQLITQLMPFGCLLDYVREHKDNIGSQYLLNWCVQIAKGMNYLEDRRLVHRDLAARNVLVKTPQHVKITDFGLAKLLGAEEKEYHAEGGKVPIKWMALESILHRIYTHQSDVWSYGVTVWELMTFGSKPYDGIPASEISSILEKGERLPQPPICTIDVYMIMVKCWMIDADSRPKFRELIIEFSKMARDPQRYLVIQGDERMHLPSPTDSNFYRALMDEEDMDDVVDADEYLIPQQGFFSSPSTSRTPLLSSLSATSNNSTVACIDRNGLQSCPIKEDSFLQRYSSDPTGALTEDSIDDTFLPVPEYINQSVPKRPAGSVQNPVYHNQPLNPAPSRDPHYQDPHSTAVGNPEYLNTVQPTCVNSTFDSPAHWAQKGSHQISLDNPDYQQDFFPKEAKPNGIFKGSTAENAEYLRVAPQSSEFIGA
Put plainly: In vitro EGFR inhibition (EGFR Kinase Assay Kit, BPS Bioscience). The settings on record: mean ± SEM of three independent experiments. The data set is classed as biochemical.
Experimental: (§9) • The in vitro inhibitory activity of the tested compounds against EGFR was accomplished using EGFR
(§10) Kinase Assay Kit (BPS Bioscience, USA) at different dilutions of 1000, 300, 100, 30, 10, 3, 1, and 0.3 nM.
In vitro carbonic anhydrase inhibition

A further data set deals with T2, hCA_IX (Homo sapiens, UniProt Q16790).
T2 construct: purchased BPS Bioscience, USA
Kind of data set: In vitro carbonic anhydrase (IX) inhibition (assay kit, BPS Bioscience). Type of data set: biochemical. The settings on record: mean ± SEM of three independent experiments.

In the next data set the target is T3, hCA_XII (Homo sapiens, UniProt O43570).
T3 construct: purchased BPS Bioscience, USA
T3 sequence (O43570 25-354): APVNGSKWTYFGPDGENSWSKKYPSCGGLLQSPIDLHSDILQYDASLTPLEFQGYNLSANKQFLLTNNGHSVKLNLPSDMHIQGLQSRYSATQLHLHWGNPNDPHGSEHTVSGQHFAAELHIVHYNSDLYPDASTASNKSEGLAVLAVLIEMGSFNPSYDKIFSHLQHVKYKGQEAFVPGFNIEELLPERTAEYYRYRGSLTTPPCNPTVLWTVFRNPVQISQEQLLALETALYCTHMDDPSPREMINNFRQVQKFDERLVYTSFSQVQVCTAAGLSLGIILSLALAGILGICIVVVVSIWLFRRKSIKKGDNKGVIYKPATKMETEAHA
Kind of data set: In vitro carbonic anhydrase (XII) inhibition (assay kit, BPS Bioscience). Type of data set: biochemical. Particulars: mean ± SEM of three independent experiments.

For data set [4], the system named is MDA-MB-231 cells. Put plainly: Cell cycle analysis, PI flow cytometry. The data set is classed as cell-based. Particulars: 16.13 µM, 48 h.
In data set [5] the test system is MDA-MB-231 cells. Put plainly: qRT-PCR of apoptotic markers in MDA-MB-231 cells. The settings on record: 16.13 µM, 72 h, control set to 1, mean ± SEM.
Experimental: Quantitative Reverse Transcription-Poly¬merase Chain Reaction (qRT-PCR) Analysis
Cells were seeded in T-25 cm2 tissue culture flasks 24h before treatment with DMSO vehicle (0.01%) or
Total RNA was extracted, reverse transcribed, and assayed
for BAX, Bcl-2, caspases-8, and caspases-9 genes expression by quantitative RT-PCR. ß-actin serves as the
housekeeping gene. The quantity of BAX, Bcl-2, Caspase-8 and Caspase-9 mRNA in control and compound
Total RNA from vehicle-treated control
(0.01% DMSO) and 14-treated MDA-231 cells were extracted as-per the manufacturer instructi¬ons (RNeasy
mini kit, Qiagen, Germany). After RNA extraction, cDNA was prepared using the Revert Aid First Strand
cDNA Synthesis kit (Thermo Scientific, USA). Amplification of target cDNA for apoptosis markers and ß-
actin [as a normalization (housekeeping) gene] was done using one-step RT-PCR SYBR® Green kit Master Mix (Bio‐Rad Laboratories, USA) on Rotor-Gene Q real-time PCR thermal cycler instrument. cDNA (2 μl
aliquots) was mixed with 1 μl of forward primer, 1 μl reverse primer (Table below), 10 μl master mixture,
and the reaction volume was completed to 20 μl with nuclease-free water. All experiments were performed in
Data set [6] relates to MDA-MB-231 cells. Kind of data set: Apoptosis analysis, Annexin V-FITC/PI flow cytometry.
Experimental: Apoptosis detection was carried out using Annexin V fluorescein isothiocyanate (V-FITC)/PI kit according to the reported procedures. MDA-MB-231cells cells were seeded and incubated for 24 h, then treated with
The cells were then collected, washed 3 times with PBS, fixed with ice-
cold absolute ethanol (70%) and stained with Annexin-V-FITC/propidium iodide (PI) using a double staining
kit for 20 min in the dark. Epics XL-MCL™ Flow Cytometer was used to evaluate the apoptosis.
Data set [7] concerns the target T1, EGFR. Set-up: method as in PMID 35896557. The settings on record: read-out: EGFR inhibition IC50; cited from earlier work.
Another data set concerns T-47D. Details: method as in PMID 35896557. The settings on record: read-out: anti-proliferative IC50, T-47D; cited from earlier work.
Another data set has as its system MDA-MB-231. Set-up: method as in PMID 35896557. Particulars: read-out: anti-proliferative IC50, MDA-MB-231; cited from earlier work.
For data set [8], the system named is MDA-MB-231 cells. Set-up: method as in PMID 35896557. The settings on record: cited from earlier work.

Experimental for MCF-7 cells: as §1, §2, §3, §4, §5, §6, §7, §8
Experimental for hCA_IX: as §9, §10
In vitro carbonic anhydrase inhibition

On to `CC(=O)Nc1nnc(S(N)(=O)=O)s1` [Acetazolamide, reference compound], for which the IC50 at 24 h in [1] amounted to 77.57 ± 0.57 µM. In addition, the values for the IC50 in the data set on MCF-7 cells and in the data set on MDA-MB-231 cells [2] were 7.26 ± 0.3 µM and 7.64 ± 0.4 µM, respectively.

Consider `CCOC(=O)c1nn(-c2ccc(S(N)(=O)=O)cc2)/c(=N/N=C(\C)c2ccc(NC(C)=O)cc2)s1` [Compound 14, Ethyl (Z)-5-(((E)-1-(4-acetamidophenyl)ethylidene)hydrazineylidene)-4-(4-sulfamoylphenyl)-4,5-dihydro-1,3,4-thiadiazole-2-carboxylate], for which the IC50 amounted to 10.1 ± 0.29 nM against EGFR [3]; 79 ± 0.3 nM on hCA_IX; 58 ± 0.3 nM on hCA_XII; 22.6 ± 1.5 µM in the data set on MCF-7 cells; 16.1 ± 1.2 µM in the data set on MDA-MB-231 cells [2]. Besides, in data set [1], the IC50 at 24 h amounted to 148.3 ± 1.22 µM. The “Cell cycle distribution (%) % G2/M” value with MDA-MB-231 cells [4] (untreated 10.59) is recorded as 7.94%. Further, the “Cell cycle distribution (%) %Sub-G1” value in the data set on MDA-MB-231 cells [4] (untreated 19.48) is listed as 19.18%. Further, in the data set with MDA-MB-231 cells [4] (untreated 24.95), the “Cell cycle distribution (%) %S” value was 23.78%. Besides, the “Cell cycle distribution (%) %G1” value with MDA-MB-231 cells [4] (untreated 44.98) is reported as 49.10%. Further, the “Average of Relative viability of cells (%) MCF-7” value in the data set on MCF-7 cells (1.56 µM) was 100%; in the data set on MCF-7 cells (3.125 µM) it was 90.3%; in the data set on MCF-7 cells (6.25 µM) it was 71.7%; in the data set with MCF-7 cells (12.5 µM), 57.6%; in the data set on MCF-7 cells (25 µM) it was 46.5%; in the data set on MCF-7 cells (50 µM), 35.1%. Moreover, the “Average of Relative viability of cells (%) MCF-7” value in the data set on MCF-7 cells (100 µM) stood at 24.4%. Also, the “Average of Relative viability of cells (%) MDA-231” value with MDA-MB-231 cells [2] (1.56 µM) came out at 100%; in the data set with MDA-MB-231 cells [2] (3.125 µM), 86.3%; with MDA-MB-231 cells [2] (6.25 µM), 69.9%; with MDA-MB-231 cells [2] (12.5 µM), 51.0%; in the data set with MDA-MB-231 cells [2] (25 µM) it was 38.6%; with MDA-MB-231 cells [2] (50 µM) it was 26.1%. For the same compound, the “Average of Relative viability of cells (%) MDA-231” value with MDA-MB-231 cells [2] (100 µM) turned out to be 18.5%. Besides, in the data set on MDA-MB-231 cells [5], the “Gene expression (Fold Change) BAX” value is recorded as 3.06 ± 0.18 Fold Change. Moreover, the “Gene expression (Fold Change) BAX/Bcl-2 ratio” value in the data set on MDA-MB-231 cells [5] came out at 5.56 ± 0.69 Fold Change. The “Gene expression (Fold Change) Bcl-2” value with MDA-MB-231 cells [5] was found to be 0.55 ± 0.05 Fold Change. Besides, the “Gene expression (Fold Change) Caspases-8” value in the data set on MDA-MB-231 cells [5] was 2.37 ± 0.07 Fold Change. Also, in the data set with MDA-MB-231 cells [5], the “Gene expression (Fold Change) Caspases-9” value is given as 2.26 ± 0.15 Fold Change. For the same compound, the “Apoptosis Late” value in the data set on MDA-MB-231 cells [6] (16.13 µM, 48 h, MDA-MB-231, untreated 0.32) was 58.27%. Also, the Necrosis with MDA-MB-231 cells [6] (16.13 µM, 48 h, MDA-MB-231, untreated 0.45) is recorded as 0.03%. Besides, in the data set on MDA-MB-231 cells [6] (16.13 µM, 48 h, MDA-MB-231, untreated 3.84), the “Apoptosis Early” value is listed as 22.50%. Further, the viability at 16.13 µM with MDA-MB-231 cells [6] (Homo sapiens, MDA-MB-231, 48 h, read-out: Viable cells) was found to be 19.2%.

Regarding `COc1ccc(/C=C2/SC(N3N=C(c4cccc5ccccc45)CC3c3ccc(F)cc3)=NC2=O)cc1O` (centres unmarked) [compound III], the values for the IC50 at EGFR [7], with T-47D and in the data set with MDA-MB-231 were 0.267 µM, 0.62 µM and 3.14 µM, respectively. Further, the apoptosis induction result in the data set on MDA-MB-231 cells [8] is “induced apoptosis”. For the same compound, the “cell cycle arrest phase” value in the data set with MDA-MB-231 cells [8] is “G2/M phase”.
